Positions count from the first letter of the chain named. pIC50: −log10 of the molar value.
What was measured:
[1] = target: T1, POLγA:G848S (Homo sapiens, UniProt P54098, G848S); experiment: DNA polymerization assay, POLγA:G848S mutant; format: biochemical; conditions: stimulation of polymerase activity, primed M13mp18 ssDNA, 37° C. 2 hours; read-out: G848S AC50
T1 sequence (P54098 1-1239 G848S): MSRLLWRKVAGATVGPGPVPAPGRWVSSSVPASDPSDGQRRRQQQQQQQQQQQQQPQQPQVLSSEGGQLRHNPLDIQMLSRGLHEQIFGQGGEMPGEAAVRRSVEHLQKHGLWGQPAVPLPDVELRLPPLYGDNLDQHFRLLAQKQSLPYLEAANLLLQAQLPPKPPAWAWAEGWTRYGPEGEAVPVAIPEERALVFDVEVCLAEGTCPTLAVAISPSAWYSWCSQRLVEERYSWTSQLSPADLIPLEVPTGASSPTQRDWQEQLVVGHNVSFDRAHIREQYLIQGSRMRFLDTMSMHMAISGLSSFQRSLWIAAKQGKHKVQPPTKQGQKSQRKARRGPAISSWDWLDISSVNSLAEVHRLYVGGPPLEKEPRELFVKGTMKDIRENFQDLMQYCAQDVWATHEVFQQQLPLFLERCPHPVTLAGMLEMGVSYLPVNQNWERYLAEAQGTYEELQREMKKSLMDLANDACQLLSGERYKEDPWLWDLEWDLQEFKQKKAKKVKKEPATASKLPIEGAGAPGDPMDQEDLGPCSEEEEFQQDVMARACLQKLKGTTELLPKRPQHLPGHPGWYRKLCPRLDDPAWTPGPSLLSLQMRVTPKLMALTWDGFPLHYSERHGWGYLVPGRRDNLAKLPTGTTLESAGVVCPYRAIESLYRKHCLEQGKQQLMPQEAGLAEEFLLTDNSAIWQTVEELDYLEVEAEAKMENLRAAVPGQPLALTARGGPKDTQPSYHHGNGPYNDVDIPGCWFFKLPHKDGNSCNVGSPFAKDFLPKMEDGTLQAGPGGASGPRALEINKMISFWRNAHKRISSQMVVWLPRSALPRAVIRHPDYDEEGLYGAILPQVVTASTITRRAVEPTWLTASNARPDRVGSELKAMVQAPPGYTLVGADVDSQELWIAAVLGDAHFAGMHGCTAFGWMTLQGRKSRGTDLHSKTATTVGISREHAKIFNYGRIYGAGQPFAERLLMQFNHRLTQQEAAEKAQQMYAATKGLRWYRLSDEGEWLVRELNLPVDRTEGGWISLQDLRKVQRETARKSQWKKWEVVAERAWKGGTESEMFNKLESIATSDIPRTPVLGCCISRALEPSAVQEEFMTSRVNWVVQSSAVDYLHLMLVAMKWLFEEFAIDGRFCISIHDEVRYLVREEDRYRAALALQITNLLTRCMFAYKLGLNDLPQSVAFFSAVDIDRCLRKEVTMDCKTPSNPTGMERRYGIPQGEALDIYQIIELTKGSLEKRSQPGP
T1 sequence (Q9UHN1 1-485 partner): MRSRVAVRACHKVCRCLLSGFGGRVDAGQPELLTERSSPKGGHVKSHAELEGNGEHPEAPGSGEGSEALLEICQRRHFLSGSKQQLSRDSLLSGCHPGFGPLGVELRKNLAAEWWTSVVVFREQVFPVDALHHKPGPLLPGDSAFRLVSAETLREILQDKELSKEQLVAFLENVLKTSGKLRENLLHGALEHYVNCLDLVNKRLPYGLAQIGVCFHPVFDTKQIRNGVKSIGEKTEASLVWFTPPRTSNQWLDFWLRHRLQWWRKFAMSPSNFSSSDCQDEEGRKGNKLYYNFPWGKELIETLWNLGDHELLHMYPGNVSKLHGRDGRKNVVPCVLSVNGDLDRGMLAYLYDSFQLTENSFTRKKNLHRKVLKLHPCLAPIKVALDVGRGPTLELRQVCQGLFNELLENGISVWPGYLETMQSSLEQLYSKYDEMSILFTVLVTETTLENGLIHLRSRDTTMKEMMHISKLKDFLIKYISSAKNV
Protocol: DNA Polymerization Assay to Monitor Effects on Human Wildtype POLγ and Four Disease-Causing Mutant Variants of Human POLγ.
The ability of small molecules to stimulate the polymerase activity of POLγ was analyzed in a quantitative fluorescence SYBR Green I assay with fluorescence intensity (FI) readout.
In the presence of dNTPs, wild type human POLγ and mutant derivatives thereof were incubated with single-stranded, circular M13mp18 ssDNA hybridized to a short DNA oligonucleotide that functions as a primer for initiation of DNA synthesis. POLγ and mutant derivatives thereof will extend the primer and use the M13mp18 molecule as a template to synthesize long stretches of double-stranded DNA. SYBR Green I, which is a double-stranded DNA-binding dye, was used to quantify formation of double-stranded DNA in the reaction. When bound to double-stranded DNA, SYBR Green I fluorescence increases by up to 100-fold.
The assay was performed in the 384-well plate format. Upon addition of compounds, changes in double-stranded DNA synthesis activity can be monitored by following effects on fluorescent intensity.
The reactions also contained the accessory POLγB subunit, and the human mitochondrial single-stranded DNA binding protein (mtSSB).
The DNA template mixture used in the assay contained 0.5 nM primed M13 mp18 ssDNA, 400 nM mtSSB, 0.1 mM Tris-HCl (pH 8.0), 0.1 mM dNTP, 10 mM MgCl2, 0.1 mg/mL BSA, 1 mM TCEP solution, and 0.02% Triton X-100. The DNA template mixture for the wild type protein contained either 100 μM dNTP, 1 μM dNTP, or 0.1 μM dNTP, designated in Table 2 as 100 μM, 1 μM, and 0.1 μM, respectfully.
(§1) Microplates with compounds (0.1 μL in each well) to be tested in the assay were prepared from 10 mM compound stocks in 100% DMSO, and equal amounts of DMSO without any compound were added to positive and negative control wells.
The protein mixture was dispensed (5 μL into each well) into compound plates and incubated at 37° C. for 15 minutes. After incubation, 5 μL of the DNA template mixture was dispensed into each well. The plates were then incubated at 37° C. for 2 hours.
(§2) During incubation, a combined stop buffer and detection reagent solution was prepared. The buffer contained 25 mM EDTA (pH 8.0), 0.02% Triton X-100, and SYBR Green I [Invitrogen] diluted 10,000× (for fluorescent readout). EDTA will stop the enzymatic reaction by chelating magnesium ions.

[2] = target: T2, human POLγ 3′-5′ exonuclease activity (Homo sapiens, UniProt P54098); experiment: Exonuclease inhibition assay with human POLγ (SYBR Green I fluorescence); format: biochemical; conditions: POLγA 1 nM, POLγB 1.3 nM, 5 nM exonuclease template, no dNTPs, 37° C. 2.5 hours
T2 sequence (P54098 1-1239): T1 sequence (P54098 1-1239 G848S) with S848G
T2 sequence (Q9UHN1 1-485 partner): T1 sequence (Q9UHN1 1-485 partner)
Protocol: Exonuclease inhibition assay with human POLγ.
The ability of small molecules to inhibit the 3′-5′ exonuclease activity of POLγ was analyzed in a quantitative fluorescence SYBR Green I assay with fluorescence intensity (FI) readout.
Human POLγ was incubated with a linear, partially double-stranded template containing an 85 base pair double-stranded DNA stretch and a 15 nucleotides long single-stranded 5′-tail (hereafter referred to as the “exonuclease template”). […] When bound to double-stranded DNA, SYBR Green I fluorescence increases by up to 100-fold. In the absence of deoxynucleotide triphosphates (dNTPs), the exonuclease activity of POLγ degrades the 85-mer strand, which leads to the formation of single-stranded DNA (ssDNA) and decreased fluorescent intensity. The assay was performed in a 384-well plate format.
The exonuclease template used was generated by hybridization of a 100 nucleotides long, single-stranded DNA molecule with an inverted dT at the 3′-end (5′-TTTTTTTTTATCCGGGCTCGTTATCTAAGCTGCTCTTGGTAGGCATTGACGTCCATACTGCAAATTCAGCTCTGTGCAGTTAGGCAGGAGTCTACAAGC invT-3′) to an 85 nucleotides long single-stranded DNA molecule (5′-AGCTTGTAGACTCCTGCCTAACTGCACAGAGCTGAATTTGCAGTATGGACGTCAATGCCTACCAGAGCAGCTTAGATAACGAGC-3′), using a Bio-Rad T100 Thermal Cycler. The inverted dT is characterized by a 3′-3′ linkage, which inhibits both degradation of the 3′-5′ exonuclease activity and extension by DNA polymerases.
POLγ is an heterotrimer of one POLγA subunit (harboring exonuclease and DNA polymerase activities) and two accessory POLγB subunits. Proteins used in the exonuclease assay were POLγA (NP_002684) and POLγB (NP_009146).
The protein mixture used in the assays contained POLγA (1 nM), POLγB (1.3 nM, concentration calculated as a dimer), 25 mM Tris-HCl (pH 8.0), 0.1 mg/mL bovine serum albumin, 1 mM Bond-Breaker TCEP solution (pH 7) [Thermo Fisher], 25 mM NaCl, and 0.02% Triton X-100.
The DNA template mixture used in the assay contained 5 nM of the exonuclease template, 25 mM Tris-HCl (pH 8.0), 10 mM MgCl2, 0.1 mg/mL bovine serum albumin, 1 mM Bond-Breaker TCEP solution [Thermo Fisher], and 0.02% Triton X-100.
as §1
The protein mixture containing POLγ was dispensed (5 μL in each well) into compound plates and incubated at 37° C. for 15 minutes to allow compound binding to the POLγ complex. After incubation, 5 μL of the DNA template mixture was dispensed into each well. The plates were incubated at 37° C. for 2.5 hours.
as §2
After the 2.5-hour incubation period, the SYBR Green I solution was added (10 μL) to the screening plates and the plates were incubated at room temperature in the dark for 20 minutes before the fluorescent signal was read between […] on a BMG Pherastar microtiter plate reader.

AC50 [1] [µM]	pIC50 [2]	SMILES
> 100		Cc1cc(S(=O)(=O)Nc2cccc(C(=O)N[C@@H](C)c3ccccc3)c2)c(C)cc1Cl [Example 45, (S)-3-((4-chloro-2,5-dimethylphenyl)sulfonamido)-N-(1-phenylethyl)benzamide]
	5.15	Cc1cc(S(=O)(=O)Nc2cccc(-c3nc(C4CC4)cn3C)c2)c(C)cc1Cl [Example 186, 4-chloro-N-(3-(4-cyclopropyl-1-methyl-1H-imidazol-2-yl)phenyl)-2,5-dimethylbenzenesulfonamide]

Source: patent US20260138961A1, “MODULATORS OF MITOCHONDRIAL DNA REPLICATION” (Pretzel Therapeutics, Inc., priority 2022, published 2026)
